Reference: article PMC10611619, “[^99mTc]Tc-PentixaTec: development, extensive pre-clinical evaluation, and first human experience” (European Journal of Nuclear Medicine and Molecular Imaging, 2023)
Like-named read-outs stand apart in the source and are kept apart here. One block for each molecule: values may come before it. Where a SMILES comes first, the peptide text is derived from it. Bridges are numbered along the chain shown (N, C = ends). Roman numbers before positions name the chains, in order. Side-chain parts run from the residue outwards. [ ]: non-standard residue; d: D form. The star is where a group is joined. DOTA = O=C(O)CN1CCN(CC(=O)O)CCN(CC(=O)*)CCN(CC(=O)O)CC1; dTyr(3-I) = N[C@H](Cc1ccc(O)c(I)c1)C(=O)O; 2Nal = N[C@@H](Cc1ccc2ccccc2c1)C(=O)O; dNMeOrn = CN[C@H](CCCN)C(=O)O; HYNIC = NNc1ccc(C(=O)*)cn1; 4Amb = NCc1ccc(C(=O)O)cc1; Mercaptoacetyl = O=C(CS)*; 4Abz = Nc1ccc(C(=O)O)cc1; dDap = NC[C@@H](N)C(=O)O

Tests used:
[1] = system: Jurkat xenograft bearing CB17/SCID mice; test: Biodistribution in Jurkat xenograft-bearing mice, 1 h p.i.; type: in vivo; details: Jurkat xenograft, n = 5, mean ± SD
Procedure: (§1) Female CB17/SCID mice bearing subcutaneous Jurkat human T cell lymphoma xenografts (for more detailed information, see supplemental material) were injected intravenously with the respective ^99mTc-labeled tracer (5–20 MBq, 0.1–0.2 nmol/mouse) under isofluorane anesthesia and were sacrificed at 1 h post-injection (p.i.). The organs of interest were dissected, and the activity concentration in weighed tissue samples was quantified using a WIZARD^2® 2480 automatic γ-Counter from Perkin Elmer (Waltham MA, USA). Biodistribution data are given in %iD/g and represent means ± SD (groups of n = 4–5 animals). Statistical analysis (t-test) was performed using GraphPad Prism.
(§2) To establish tumor xenografts, Jurkat cells (2 – 3x10^7 cells) were suspended in a mixture of RPMI 1640 medium and Matrigel (1/1; v/v) (BD Biosciences, Heidelberg, Germany), and injected subcutaneously into the right shoulder of 6–10 weeks old CB17-SCID mice from either Charles River GmbH (Sulzfeld, Germany) or the in-house mouse breeding facility. As soon as tumors had grown to a diameter of 5–8 mm (4 – 10 weeks after inoculation), mice were used for the experiments.

[2] = system: hCXCR4 expressing Chem-1 cells; test: Dual tracer internalization studies with [^125I]FC-131 as internal reference; type: cell-based, human; details: for internalization in % of total activity / Internalization (% of reference): 90 min; for Internalization (% of reference): normalized to specific internalization of [^125I]FC-131, Chem-1 cells; for internalization area under the curve (AUC): internalization kinetics, Fig. 1
Procedure: Dual tracer internalization studies using [^125I]FC-131 as internal reference were conducted in hCXCR4 expressing Chem-1 cells in analogy to a previously established protocol. A detailed assay protocol is provided in the supplementary material section.
On the day prior to the experiment, Chem-1 cells were seeded in 24-well-plates at a density of app. 1·10^5 cells per well. On the day of the experiment, the culture medium was removed and the cells were washed once with 250 µL of unsupplemented medium before being left to equilibrate in 200 µL of assay medium (DMEM/F-12 containing 5% BSA) at 37°C for a minimum of 15 min before the experiment. Cells were then coincubated with the respective ^99mTc-labeled compound of interest (0.2 nM) and [^125I]FC-131 (0.2 nM) in the absence (total binding) or presence (non-specific binding) of 100 µM AMD3100 for different time points up to 120 min at 37°C (n=3 wells, respectively, per time point). Incubation was terminated by placing the plate on an ice pack for app. 1 min and by subsequent removal of the incubation medium. Cells were thoroughly rinsed with 250 µL of HBSS. After washing twice with 250 µL of ice cold acid wash buffer (0.02 M NaOAc buffered with AcOH to pH = 5), cells were lysed with 250 µL of 1 N NaOH. The lysate was tranferred to vials and combined with 250 µL of HBSS used for rinsing the wells. Quantification of the amount of free, acid-releasable and internalized ^99mTc- and ^125I-activity was performed using dual isotope protocol on a WIZARD^2® 2480 automatic γ-Counter (Perkin Elmer, Waltham MA, USA).
All data were corrected for non-specific internalization in the presence of […] AMD3100 and were then normalized to the specific internalization observed of the standard radioligand [^125I]FC-131.

[3] = Biodistribution in Jurkat xenograft-bearing mice, 1 h p.i.; type: in vivo; details: female, CB17/SCID, mouse, iv, total radioactivity, n = 5, mean ± SD
Procedure: as §1, §2

[4] = Lipophilicity (logD), shake-flask n-octanol/PBS pH 7.4; type: physicochemical
Procedure: The lipophilicity (logD, partition coefficient between n-octanol and PBS, pH 7.4) of all ^99mTc-labeled compounds in this study was determined using a modified shake-flask method as described.

[5] = in vivo; cited from earlier work
human CXCR4 (hCXCR4) = human CXCR4 (hCXCR4) (Homo sapiens, UniProt P61073); test: Competitive binding to hCXCR4 (IC50), Jurkat cells, [^125I]FC-131 as radioligand; details: [^125I]FC-131 radioligand
Sequence of human CXCR4 (hCXCR4) (P61073 whole entry): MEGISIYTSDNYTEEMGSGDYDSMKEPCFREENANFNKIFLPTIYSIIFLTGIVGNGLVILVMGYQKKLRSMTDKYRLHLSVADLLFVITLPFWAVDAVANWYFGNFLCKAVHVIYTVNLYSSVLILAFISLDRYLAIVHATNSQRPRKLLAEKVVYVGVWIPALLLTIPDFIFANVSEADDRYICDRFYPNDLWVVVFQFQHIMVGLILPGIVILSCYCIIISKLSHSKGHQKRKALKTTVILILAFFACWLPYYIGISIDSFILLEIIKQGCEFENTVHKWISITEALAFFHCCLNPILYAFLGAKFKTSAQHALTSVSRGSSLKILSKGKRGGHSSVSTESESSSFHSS

mCXCR4 = details: Eµ-myc 1080 mouse lymphoma cells; cited from earlier work

SMILES: C[C@@H](NC(=O)[C@@H](CCCNC(=N)N)NC(=O)[C@@H](CN)NC(=O)[C@@H](CO)NC(=O)[C@@H](CO)NC(=O)[C@@H](CO)NC(=O)CS)C(=O)Nc1ccc(C(=O)NCCC[C@@H]2C(=O)N[C@@H](CCCNC(=N)N)C(=O)N[C@@H](Cc3ccc4ccccc4c3)C(=O)NCC(=O)N[C@H](Cc3ccc(O)cc3)C(=O)N2C)cc1 [[^99mTc]Tc-mas3-L6-CPCR4, metal not drawn] (I: Mercaptoacetyl-[dS][dS][dS][dDap][dR][dA][4Abz] / II: cyclo([dY][dNMeOrn]R[2Nal]G); amide I:C-II:2)
Biodistribution Tumor (tumor accumulation) [1]: 6.6 ± 1.0 %iD/g
internalization in % of total activity [2]: 80%
Internalization (% of reference) [2]: 525 (90 min) % of reference
internalization area under the curve (AUC) [2]: 2430

tissue uptake at 1 h ([3]; blood, read-out: Biodistribution Blood): 1.6 ± 0.6 %ID/g
tissue uptake at 1 h ([3]; femur, read-out: Biodistribution Femur): 0.8 ± 0.4 %ID/g
tissue uptake at 1 h ([3]; heart, read-out: Biodistribution Heart): 0.8 ± 0.3 %ID/g
tissue uptake at 1 h ([3]; intestines, read-out: Biodistribution Intestines): 0.6 ± 0.1 %ID/g
tissue uptake at 1 h ([3]; kidneys, read-out: Biodistribution Kidneys): 29.5 ± 4.4 %ID/g
tissue uptake at 1 h ([3]; liver, read-out: Biodistribution Liver): 2.6 ± 0.2 %ID/g
tissue uptake at 1 h ([3]; lung, read-out: Biodistribution Lung): 1.9 ± 0.4 %ID/g
tissue uptake at 1 h ([3]; muscle, read-out: Biodistribution Muscle): 1.5 ± 1.1 %ID/g
tissue uptake at 1 h ([3]; pancreas, read-out: Biodistribution Pancreas): 0.4 ± 0.3 %ID/g
tissue uptake at 1 h ([3]; spleen, read-out: Biodistribution Spleen): 2.4 ± 1.1 %ID/g
tissue uptake at 1 h ([3]; stomach, read-out: Biodistribution Stomach): 2 ± 0.7 %ID/g
Biodistribution Tumor (tumor accumulation) [1]: 8.0 ± 2.2 %iD/g
SMILES: C[C@@H](NC(=O)[C@@H](CCCNC(=N)N)NC(=O)[C@@H](CN)NC(=O)c1ccc(NN)nc1)C(=O)Nc1ccc(C(=O)NCCC[C@@H]2C(=O)N[C@@H](CCCNC(=N)N)C(=O)N[C@@H](Cc3ccc4ccccc4c3)C(=O)NCC(=O)N[C@H](Cc3ccc(O)cc3)C(=O)N2C)cc1 [[^99mTc]Tc-HYNIC-L6-CPCR4, metal not drawn] (cyclo([dY][dNMeOrn]([4Abz-dA-dR-dDap-HYNIC])R[2Nal]G))
internalization in % of total activity [2]: 77%
Internalization (% of reference) [2]: 503 (90 min) % of reference
internalization area under the curve (AUC) [2]: 2370

Lipophilicity (logD) [4]: − 1.84
SMILES: CN1C(=O)[C@@H](Cc2ccc(O)cc2)NC(=O)CNC(=O)[C@H](Cc2ccc3ccccc3c2)NC(=O)[C@H](CCCNC(=N)N)NC(=O)[C@H]1CCCNC(=O)c1ccc(NN)nc1 [[^99mTc]Tc-HYNIC-CPCR4, cyclo(D-Tyr-N-Me-D-Orn([^99mTc]Tc-HYNIC)-Arg-2-Nal-G), metal not drawn] (cyclo([2Nal]G[dY][dNMeOrn](HYNIC)R))
effective dose per unit of administered activity [5]: 3.92E − 03 mSv/MBq

SMILES: C[C@@H](NC(=O)[C@@H](CCCNC(=N)N)NC(=O)[C@@H](CN)NC(=O)[C@@H](CO)NC(=O)[C@@H](CO)NC(=O)[C@@H](CO)NC(=O)CS)C(=O)Nc1ccc(C(=O)NCCC[C@@H]2C(=O)N[C@@H](CCCNC(=N)N)C(=O)N[C@@H](Cc3ccc4ccccc4c3)C(=O)NCC(=O)N[C@H](Cc3ccc(O)cc3)C(=O)N2C)cc1 [mas3-L6-CPCR4, mas3-dap-r-a-Abz-CPCR4] (I: Mercaptoacetyl-[dS][dS][dS][dDap][dR][dA][4Abz] / II: cyclo([dY][dNMeOrn]R[2Nal]G); amide I:C-II:2)
IC50 (human CXCR4 (hCXCR4)): 5 ± 1.3 nM

SMILES: CN1C(=O)[C@@H](Cc2ccc(O)c(I)c2)NC(=O)CNC(=O)[C@H](Cc2ccc3ccccc3c2)NC(=O)[C@H](CCCNC(=N)N)NC(=O)[C@H]1CCCNC(=O)c1ccc(CNC(=O)CN2CCN(CC(=O)O)CCN(CC(=O)O)CCN(CC(=O)O)CC2)cc1 [^natLu-PentixaTher, metal not drawn] (cyclo([dTyr(3-I)][dNMeOrn]([4Amb-DOTA])R[2Nal]G); ring closure inferred)
IC50 (mCXCR4): 567 ± 62 nM
